ChEMBL document CHEMBL1146996, “Hispidin analogs from the mushroom Inonotus xeranticus and their free radical scavenging activity” (Bioorg Med Chem Lett, 2006)

Key:
Assay type in all cases: functional
[1] = tested on: Radical scavenging activity; experiment: ABTS radical scavenging activity
[2] = tested on: Radical scavenging activity; experiment: DPPH radical scavenging activity
[3] = tested on: Radical scavenging activity; experiment: Superoxide radical scavenging activity

| SMILES | IC50 [1] [µM] | IC50 [2] [µM] | IC50 [3] [µM] |
| --- | --- | --- | --- |
| O=C(O)/C=C/c1ccc(O)c(O)c1 [CAFFEIC ACID] | 2.8 | 31.7 | 2.9 |
| CC1=CC(=O)[C@H](c2c(O)cc(/C=C/c3ccc(O)c(O)c3)oc2=O)[C@@H](c2ccc(O)c(O)c2)O1 [DAVALLIALACTONE] | 0.8 | 3.4 | 2.3 |
| CC(=O)c1c(-c2ccc(O)c(O)c2)oc2cc(/C=C/c3ccc(O)c(O)c3)oc(=O)c12 [INOSCAVIN C] | 7.8 | > 100 | > 100 |

Next, values leading:

| IC50 [1] [µM] | IC50 [2] [µM] | IC50 [3] [µM] | SMILES |
| --- | --- | --- | --- |
| 1.5 | 18.7 | 5.4 | COc1cc(/C=C/c2cc(O)c([C@H]3C(=O)C=C(C)O[C@@H]3c3ccc(O)c(O)c3)c(=O)o2)ccc1O [METHYLDAVALLIALACTONE] |
| 12.3 | > 100 | > 100 | COc1cc(/C=C/c2cc3oc(-c4ccc(O)c(O)c4)c(C(C)=O)c3c(=O)o2)ccc1O [METHYLINOSCAVIN C] |
